# Measured values reported in patent US9050341B2, “Methods of treating drug resistant and other tumors by administering 6,7-dialkoxy quinazoline derivatives” (NATCO PHARMA LIMITED, priority 2009, dated 2015).
# Assays:
# Assay in all cases: KinomeScan kinase profiling
# Format in all cases: binding
# CAMK1G = target: T1, CAMK1G (Homo sapiens, UniProt Q96NX5)
# T1 construct: purchased Ambit Biosciences Corp (KinomeScan); host or cells: E. coli host derived from the BL21 strain, T7 phage
# How it was run: (§1)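 Kinases were expressed as T7 phage fusions in a BL21-derived E. coli host and the cleared lysates were used. Ligand beads were blocked with biotin and buffer (1% BSA, 0.05% Tween 20, 1 mM DTT). Compounds came from 40× DMSO stocks, and phage in the eluates was titred by qPCR.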
# PRKG1 = target: T2, PRKG1 (Homo sapiens, UniProt Q13976)
# T2 construct: purchased Ambit Biosciences Corp (KinomeScan); host or cells: E. coli host derived from BL21, infected with T7 phage
# How it was run: as §1
# EGFR (G719S) = target: T3, EGFR (G719S) (Homo sapiens, UniProt P00533, G719S)
# T3 construct: purchased Ambit Biosciences Corp (KinomeScan); host or cells: T7 phage in E. coli host derived from BL21
# How it was run: as §1
# ABL1 (E255K) = target: T4, ABL1 (E255K) (Homo sapiens, UniProt P00519, E255K)
# T4 construct: host or cells: E. coli host derived from BL21 (T7 phage lysate)
# How it was run: as §1
# NEK2 = target: T5, NEK2 (Homo sapiens, UniProt P51955)
# T5 construct: host or cells: T7 phage in E. coli host derived from BL21
# How it was run: as §1
# TAOK3 = target: T6, TAOK3 (Homo sapiens, UniProt Q9H2K8)
# T6 construct: host or cells: E. coli host derived from the BL21 strain, T7 phage lysate
# How it was run: as §1
# PKMYT1 = target: T7, PKMYT1 (Homo sapiens, UniProt Q99640)
# T7 construct: purchased Ambit Biosciences Corp (KinomeScan); host or cells: E. coli host derived from BL21, infected with T7 phage
# How it was run: as §1
# PDGFRA = target: T8, PDGFRA (Homo sapiens, UniProt P16234)
# T8 construct: host or cells: E. coli host derived from the BL21 strain, infected with T7 phage
# How it was run: as §1
# PIK3CA = target: T9, PIK3CA (Homo sapiens, UniProt P42336)
# T9 construct: host or cells: E. coli host derived from the BL21 strain, infected with T7 phage
# How it was run: as §1
# SgK085 = target: T10, SgK085 (Homo sapiens, UniProt Q86YV6)
# T10 construct: host or cells: E. coli host derived from the BL21 strain, T7 phage lysate
# How it was run: as §1
# MARK4 = target: T11, MARK4 (Homo sapiens, UniProt Q96L34)
# T11 construct: host or cells: E. coli derived from BL21, infected with T7 phage
# How it was run: as §1
# TLK1 = target: T12, TLK1 (Homo sapiens, UniProt Q9UKI8)
# T12 construct: purchased Ambit Biosciences Corp (KinomeScan); host or cells: E. coli host derived from the BL21 strain (T7 phage lysate)
# How it was run: as §1
# RIOK2 = target: T13, RIOK2 (Homo sapiens, UniProt Q9BVS4)
# T13 construct: host or cells: E. coli host derived from BL21, T7 phage lysate
# How it was run: as §1
# MAPKAPK5 = target: T14, MAPKAPK5 (Homo sapiens, UniProt Q8IW41)
# T14 construct: host or cells: E. coli derived from BL21, infected with T7 phage
# How it was run: as §1
# RIPK1 = target: T15, RIPK1 (Homo sapiens, UniProt Q13546)
# T15 construct: host or cells: E. coli host derived from BL21, T7 phage lysate
# How it was run: as §1
# p38-gamma = target: T16, p38-gamma (Homo sapiens, UniProt P53778)
# T16 construct: host or cells: E. coli host derived from the BL21 strain, infected with T7 phage
# How it was run: as §1
# EPHA6 = target: T17, EPHA6 (Homo sapiens, UniProt Q9UF33)
# T17 construct: host or cells: E. coli host derived from BL21, T7 phage lysate
# How it was run: as §1
# PIK3CG = target: T18, PIK3CG (Homo sapiens, UniProt P48736)
# T18 construct: purchased Ambit Biosciences Corp (KinomeScan); host or cells: E. coli host derived from BL21, infected with T7 phage
# How it was run: as §1
# ASK1 = target: T19, ASK1 (Homo sapiens, UniProt Q99683)
# T19 construct: purchased Ambit Biosciences Corp (KinomeScan); host or cells: E. coli host derived from the BL21 strain, T7 phage
# How it was run: as §1
# p38-beta = target: T20, p38-beta (Homo sapiens, UniProt Q15759)
# T20 construct: host or cells: E. coli host derived from the BL21 strain, infected with T7 phage
# How it was run: as §1
# LIMK1 = target: T21, LIMK1 (Homo sapiens, UniProt P53667)
# T21 construct: host or cells: T7 phage in E. coli host derived from BL21
# How it was run: as §1
# AMPK-alpha1 = target: T22, AMPK-alpha1 (Homo sapiens, UniProt Q13131)
# T22 construct: host or cells: E. coli host derived from BL21 (T7 phage lysate)
# How it was run: as §1
# KIT (V559D, T670I) = target: T23, KIT (V559D, T670I) (Homo sapiens, UniProt P10721, T670I/V559D)
# T23 construct: host or cells: T7 phage in E. coli host derived from BL21
# How it was run: as §1
# T10 sequence (Q86YV6 whole entry): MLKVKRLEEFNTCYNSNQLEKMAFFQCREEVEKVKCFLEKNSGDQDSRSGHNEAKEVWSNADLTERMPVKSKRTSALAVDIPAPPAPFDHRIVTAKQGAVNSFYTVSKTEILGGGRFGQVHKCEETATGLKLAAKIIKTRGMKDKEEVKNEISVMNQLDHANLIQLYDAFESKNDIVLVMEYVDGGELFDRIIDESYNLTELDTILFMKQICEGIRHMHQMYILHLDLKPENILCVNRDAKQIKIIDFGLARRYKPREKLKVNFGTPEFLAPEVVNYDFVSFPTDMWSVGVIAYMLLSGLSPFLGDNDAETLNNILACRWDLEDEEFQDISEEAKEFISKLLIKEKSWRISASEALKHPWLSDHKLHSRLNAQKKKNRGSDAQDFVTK
# T20 sequence (Q15759 whole entry): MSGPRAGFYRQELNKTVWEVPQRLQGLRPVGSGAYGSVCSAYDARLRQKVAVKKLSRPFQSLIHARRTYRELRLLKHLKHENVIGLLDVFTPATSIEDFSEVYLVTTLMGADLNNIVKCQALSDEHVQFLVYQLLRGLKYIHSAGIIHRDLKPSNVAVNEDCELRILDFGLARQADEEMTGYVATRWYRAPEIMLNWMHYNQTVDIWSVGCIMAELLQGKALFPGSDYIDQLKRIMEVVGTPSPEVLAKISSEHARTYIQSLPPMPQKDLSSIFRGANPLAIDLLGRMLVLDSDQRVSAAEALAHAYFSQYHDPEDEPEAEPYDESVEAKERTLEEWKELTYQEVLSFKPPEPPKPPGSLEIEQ
# T12 sequence (Q9UKI8 whole entry): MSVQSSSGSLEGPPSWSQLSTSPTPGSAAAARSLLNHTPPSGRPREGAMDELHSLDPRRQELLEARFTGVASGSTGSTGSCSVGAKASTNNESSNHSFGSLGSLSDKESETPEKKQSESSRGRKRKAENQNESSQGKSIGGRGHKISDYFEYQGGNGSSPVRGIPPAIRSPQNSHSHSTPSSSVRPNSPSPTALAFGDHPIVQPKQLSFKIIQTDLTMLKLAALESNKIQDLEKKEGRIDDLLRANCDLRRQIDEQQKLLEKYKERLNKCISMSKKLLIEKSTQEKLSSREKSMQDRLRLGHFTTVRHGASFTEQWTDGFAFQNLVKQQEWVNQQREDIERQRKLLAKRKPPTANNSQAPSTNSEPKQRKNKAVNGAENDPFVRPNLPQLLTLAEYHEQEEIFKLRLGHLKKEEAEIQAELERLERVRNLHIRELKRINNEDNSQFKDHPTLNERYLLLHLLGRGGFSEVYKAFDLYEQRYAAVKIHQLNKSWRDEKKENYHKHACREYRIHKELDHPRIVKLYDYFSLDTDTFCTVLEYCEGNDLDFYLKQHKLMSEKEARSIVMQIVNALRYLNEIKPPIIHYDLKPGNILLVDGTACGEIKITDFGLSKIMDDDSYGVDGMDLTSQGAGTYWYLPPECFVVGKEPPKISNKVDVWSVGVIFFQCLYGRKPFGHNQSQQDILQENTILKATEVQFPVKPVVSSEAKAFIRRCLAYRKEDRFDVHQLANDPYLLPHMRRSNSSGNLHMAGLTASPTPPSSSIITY
# T6 sequence (Q9H2K8 whole entry): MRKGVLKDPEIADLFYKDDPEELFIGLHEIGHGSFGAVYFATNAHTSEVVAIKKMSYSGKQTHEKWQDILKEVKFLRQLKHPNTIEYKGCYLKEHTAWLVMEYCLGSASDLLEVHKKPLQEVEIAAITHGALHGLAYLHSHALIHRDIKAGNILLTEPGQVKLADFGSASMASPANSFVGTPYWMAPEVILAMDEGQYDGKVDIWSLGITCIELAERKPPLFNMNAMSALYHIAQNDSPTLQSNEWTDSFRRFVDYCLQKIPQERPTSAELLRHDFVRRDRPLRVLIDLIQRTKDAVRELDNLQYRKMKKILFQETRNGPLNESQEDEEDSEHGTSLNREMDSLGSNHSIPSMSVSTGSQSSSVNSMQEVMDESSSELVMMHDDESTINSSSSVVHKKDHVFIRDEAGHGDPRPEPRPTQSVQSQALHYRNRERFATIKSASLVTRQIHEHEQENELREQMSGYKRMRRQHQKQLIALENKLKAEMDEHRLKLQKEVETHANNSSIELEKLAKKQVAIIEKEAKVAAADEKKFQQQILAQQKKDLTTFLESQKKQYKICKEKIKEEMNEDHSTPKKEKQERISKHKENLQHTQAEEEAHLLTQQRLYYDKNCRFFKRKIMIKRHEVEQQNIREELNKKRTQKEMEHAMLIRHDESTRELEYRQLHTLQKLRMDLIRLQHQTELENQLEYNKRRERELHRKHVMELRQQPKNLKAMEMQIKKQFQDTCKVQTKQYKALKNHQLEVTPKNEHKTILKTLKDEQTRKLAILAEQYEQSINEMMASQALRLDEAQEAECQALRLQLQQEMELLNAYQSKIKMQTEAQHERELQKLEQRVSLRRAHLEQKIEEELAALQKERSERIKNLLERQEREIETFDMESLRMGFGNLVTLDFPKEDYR
# T16 sequence (P53778 whole entry): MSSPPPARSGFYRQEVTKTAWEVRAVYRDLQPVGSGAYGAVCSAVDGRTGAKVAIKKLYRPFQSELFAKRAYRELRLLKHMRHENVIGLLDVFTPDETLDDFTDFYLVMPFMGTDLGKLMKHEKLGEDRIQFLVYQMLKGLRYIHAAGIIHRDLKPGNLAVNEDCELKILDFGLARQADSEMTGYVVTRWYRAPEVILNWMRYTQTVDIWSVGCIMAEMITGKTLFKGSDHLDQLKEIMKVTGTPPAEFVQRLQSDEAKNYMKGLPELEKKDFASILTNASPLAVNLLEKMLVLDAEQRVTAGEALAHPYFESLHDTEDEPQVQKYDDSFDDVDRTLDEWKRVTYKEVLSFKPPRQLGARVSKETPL
# T11 sequence (Q96L34 whole entry): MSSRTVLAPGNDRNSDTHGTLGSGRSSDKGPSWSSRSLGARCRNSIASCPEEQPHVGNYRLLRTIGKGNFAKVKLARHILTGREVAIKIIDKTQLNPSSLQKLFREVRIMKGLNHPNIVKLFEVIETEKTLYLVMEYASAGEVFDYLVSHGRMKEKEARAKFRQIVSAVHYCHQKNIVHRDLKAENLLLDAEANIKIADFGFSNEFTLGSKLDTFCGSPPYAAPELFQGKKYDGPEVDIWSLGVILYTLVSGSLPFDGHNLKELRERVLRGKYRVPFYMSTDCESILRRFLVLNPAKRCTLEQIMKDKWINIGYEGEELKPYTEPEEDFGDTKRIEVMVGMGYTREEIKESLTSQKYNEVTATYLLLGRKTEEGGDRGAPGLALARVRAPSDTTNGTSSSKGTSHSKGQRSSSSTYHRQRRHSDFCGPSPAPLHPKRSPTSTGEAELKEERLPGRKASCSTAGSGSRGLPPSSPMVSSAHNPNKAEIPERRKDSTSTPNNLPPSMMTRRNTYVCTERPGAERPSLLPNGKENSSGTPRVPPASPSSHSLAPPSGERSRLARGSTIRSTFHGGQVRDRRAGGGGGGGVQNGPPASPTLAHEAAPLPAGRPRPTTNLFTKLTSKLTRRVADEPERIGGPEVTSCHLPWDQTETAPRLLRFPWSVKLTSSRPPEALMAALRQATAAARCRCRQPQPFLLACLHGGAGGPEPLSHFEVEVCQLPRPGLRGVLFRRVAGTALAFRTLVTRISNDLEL
# T2 sequence (Q13976 whole entry): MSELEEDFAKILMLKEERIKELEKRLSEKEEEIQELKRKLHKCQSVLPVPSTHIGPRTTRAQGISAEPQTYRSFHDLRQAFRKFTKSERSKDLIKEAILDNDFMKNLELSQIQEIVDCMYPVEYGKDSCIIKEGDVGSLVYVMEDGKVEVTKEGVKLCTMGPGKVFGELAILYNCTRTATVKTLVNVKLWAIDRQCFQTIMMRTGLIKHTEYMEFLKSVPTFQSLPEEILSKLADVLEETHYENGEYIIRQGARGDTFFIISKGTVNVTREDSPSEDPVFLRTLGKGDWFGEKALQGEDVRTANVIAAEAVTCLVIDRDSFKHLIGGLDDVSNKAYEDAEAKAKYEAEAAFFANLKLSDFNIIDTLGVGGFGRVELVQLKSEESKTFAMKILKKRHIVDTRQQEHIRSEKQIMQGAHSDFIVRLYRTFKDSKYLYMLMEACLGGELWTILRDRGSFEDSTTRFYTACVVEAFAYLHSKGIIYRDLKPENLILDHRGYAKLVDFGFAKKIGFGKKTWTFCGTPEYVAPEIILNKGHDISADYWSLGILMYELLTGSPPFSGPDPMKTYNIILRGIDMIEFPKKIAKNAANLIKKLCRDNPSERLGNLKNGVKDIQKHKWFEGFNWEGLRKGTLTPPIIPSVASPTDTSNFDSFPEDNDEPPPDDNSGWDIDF
# T22 sequence (Q13131 whole entry): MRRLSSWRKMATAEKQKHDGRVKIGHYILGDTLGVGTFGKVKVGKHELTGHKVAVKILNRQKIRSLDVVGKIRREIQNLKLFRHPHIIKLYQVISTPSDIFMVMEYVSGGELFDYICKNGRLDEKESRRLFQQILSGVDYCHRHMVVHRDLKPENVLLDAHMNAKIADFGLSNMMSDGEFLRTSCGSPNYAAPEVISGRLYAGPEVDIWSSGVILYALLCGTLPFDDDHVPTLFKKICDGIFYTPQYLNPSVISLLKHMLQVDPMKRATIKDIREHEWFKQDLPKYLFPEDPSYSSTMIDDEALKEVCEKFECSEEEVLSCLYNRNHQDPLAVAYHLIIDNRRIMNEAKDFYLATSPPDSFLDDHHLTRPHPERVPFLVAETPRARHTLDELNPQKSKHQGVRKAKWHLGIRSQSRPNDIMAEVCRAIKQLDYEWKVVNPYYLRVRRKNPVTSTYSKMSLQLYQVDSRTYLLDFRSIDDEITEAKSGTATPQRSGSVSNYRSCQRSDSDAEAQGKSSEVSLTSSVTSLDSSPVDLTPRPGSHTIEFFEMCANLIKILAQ
smiles,measurement,setting,value
"C#Cc1cccc(Nc2ncnc3cc(OC)c(OCCCN4CCOCC4)cc23)c1 [NRC-2694, N-(3-ethylnylphenyl)-7-methoxy-6-[3-(4-morpholinyl)propoxy]-4-quinazolinamine]",% Ctrl @ 10000 nM,CAMK1G,75 % Ctrl
same,% Ctrl @ 10000 nM,PRKG1,75 % Ctrl
same,% Ctrl @ 10000 nM,EGFR (G719S),0 % Ctrl
same,% Ctrl @ 10000 nM,ABL1 (E255K),80 % Ctrl
same,% Ctrl @ 10000 nM,NEK2,63 % Ctrl
same,% Ctrl @ 10000 nM,TAOK3,76 % Ctrl
same,% Ctrl @ 10000 nM,PKMYT1,74 % Ctrl
same,% Ctrl @ 10000 nM,PDGFRA,50 % Ctrl
same,% Ctrl @ 10000 nM,PIK3CA,100 % Ctrl
same,% Ctrl @ 10000 nM,SgK085,84 % Ctrl
same,% Ctrl @ 10000 nM,MARK4,100 % Ctrl
same,% Ctrl @ 10000 nM,TLK1,77 % Ctrl
same,% Ctrl @ 10000 nM,RIOK2,43 % Ctrl
same,% Ctrl @ 10000 nM,MAPKAPK5,79 % Ctrl
same,% Ctrl @ 10000 nM,RIPK1,100 % Ctrl
same,% Ctrl @ 10000 nM,p38-gamma,97 % Ctrl
same,% Ctrl @ 10000 nM,EPHA6,25 % Ctrl
same,% Ctrl @ 10000 nM,PIK3CG,78 % Ctrl
same,% Ctrl @ 10000 nM,ASK1,100 % Ctrl
same,% Ctrl @ 10000 nM,p38-beta,100 % Ctrl
same,% Ctrl @ 10000 nM,LIMK1,62 % Ctrl
same,% Ctrl @ 10000 nM,AMPK-alpha1,50 % Ctrl
same,% Ctrl @ 10000 nM,"KIT (V559D, T670I)",28 % Ctrl
